One series has as its system novel xylanase. As to the kind of experiment: Effect of metal ions and additives on xylanase activity (DNS method). In kind it is biochemical, Paenibacillus sp. HPL-3. Here is the method:
(§1) The measurement of xylanase activity (xylan decomposing activity) of the isolated strain, active clone, transformant, and isolated/purified enzyme was performed by either or both of the following two methods. The first method was enzyme activity measuring method using solid culture. Particularly, soft agar double medium was prepared by adding birch xylan (Fluka Bio Chemika. Co.) to LB medium by 0.5˜1.0%, to which the strain was inoculated, followed by culture for overnight. On the next day, the strain and active clone forming translucent zone (halo) around the cultured colony were selected by Congo-red staining. The second method was enzyme activity measuring method using liquid culture, that is DNS (3,5-dinitrosalicylic acid) quantitative method (Miller G. L. Anal Chem 31, 426-428, 1959). Particularly, 50 μl of substrate solution (50 mM Tris-HCl containing birch xylan by 2%, pH 7.0) was added to 50 μl of enzyme solution, followed by reaction at 50° C. for 20 minutes. 200 μl of DNS solution was added thereto, followed by further reaction at 90° C. for 5 minutes. Then, OD540 was measured. 1 unit of the enzyme was defined as the enzyme activity of 1 mg xylanase to produce 1 μmol of reducing sugar (xylose) per 1 minute.
To investigate the effect of metal ions on xylanase activity, CaCl2, MgCl2, MgCl2, CuCl2, ZnCl2, and FeCl3 were added by 1 mM each. It was further investigated how other salts such as NaCl, LiCl, KCl, NH4Cl, EDTA, CsCl2, 2-ME (2-Mercaptoethanol), DTT (Dithiothreitol), PMSF (Penylmethylsulfonyl fluoride), acetate, and furfural could affect xylanase activity.

Series [1] can be described thus: Xylanase activity (xylan decomposing activity) by DNS quantitative method at different pH and temperature. In kind it is biochemical. The protocol: as §1, with “minute. One clone showing the best activity, GM3-SLX1, was selected by liquid culture and solid culture activity test (FIG. 2).” for “minute.”
In this example, pH, temperature, and metal ion-dependent activity of xylanase over-expressed and isolated from the E. coli transformant over-expressing the novel xylanase constructed in Example <3-4> was investigated by the same manner as described in example 3-2. pH of the reaction solution was regulated to pH 4˜5 with citric acid buffer, to pH 6˜8 with phosphate buffer, to pH 7˜9 with Tris/HCl buffer, and to pH 9˜11 with glycine/NaOH buffer. To investigate the effect of metal ions on xylanase activity, CaCl2, MgCl2, MgCl2, CuCl2, ZnCl2, and FeCl3 were added by 1 mM each. It was further investigated how other salts such as NaCl, LiCl, KCl, NH4Cl, EDTA, CsCl2, 2-ME (2-Mercaptoethanol), DTT (Dithiothreitol), PMSF (Penylmethylsulfonyl fluoride), acetate, and furfural could affect xylanase activity.
E. coli BL21-Gold (DE) (Stratagene, USA) was transfected with pIVEX GST-xylanase recombinant vector (Bioprogen Co., Ltd., Korea) containing the gene (SEQ. ID. NO: 3) encoding the novel xylanase represented by SEQ. ID. NO: 4, which was inoculated in liquid medium (LB 25 g/L) supplemented with ampicillin (50 μg/ml), followed by shaking culture at 37° C. at 150 rpm until […] reached 0.4˜0.6. To induce the expression of the target protein in E. coli cells, IPTG (isopropyl-D-thiogalactoside) was added to the suspension at the concentration of 1 mM, followed by further culture for 3 hours. The culture solution was centrifuged at 10,000 rpm for 10 minutes and the recovered precipitate was washed with PBS twice. The washed precipitate was re-suspended in PBS and then cell were lysed by using a ultrasonicator (Cosmo Bio Co., LTD). Centrifugation was performed (12,000 rpm, 10 minutes) to obtain supernatant. To isolate xylanase from the supernatant, glutathione S-transferase column (GST binding resin column, Novagen) was used. For xylanase separation, the obtained supernatant was filled in glutathione S-transferase column (GST binding resin column, Novagen) equilibrated with washing buffer (50 mM Tris-HCl, 100 mM NaCl; pH 7.0), followed by treatment of factor Xa protease (NEB) and separation using washing buffer (50 mM Tris-HCl, 100 mM NaCl; pH 7.0). The enzyme activity of xylanase in each sample recovered from the purification stage was investigated. The purification of active fraction showing the enzyme activity was confirmed by SDS-PAGE. Protein content was measured by using Bradford method (Bradford, Sigma Aldrich), and BSA (bovine serum albumin) was used as the standard protein.

A short description of series [2]: Enzymatic reaction rate (Lineweaver-Burk) of the purified xylanase. In kind it is biochemical.
Where [3] appears, read: 1 mM additive, negative control = 100.
[4] abbreviates: 1 mM of heavy metal or additive.

Read-outs that look alike come from different tables or passages of the source.

Turning to `O=C(O)CN(CCN(CC(=O)O)CC(=O)O)CC(=O)O` [EDTA], in the series on novel xylanase, the “Relative activity according to conc. of additive (%)” value (“Relative activity according … (%)” below) was 54%, the “enzyme activity in presence of additive” value was “hardly affected” and the “xylanase activity inhibited by” value is 46%.

On to `[Cl-].[Cl-].[Mg+2]` [MgCl2], for which the “Relative activity according … (%)” value in the series on novel xylanase (setting [3]) was determined as 93%.

Regarding `O=S(=O)([O-])[O-].[Cu+2]` [CuSO4], the “Relative activity according … (%)” value in the series on novel xylanase (setting [3]) is reported as 26%. For the same molecule, the “xylanase activity inhibited by” value in the series on novel xylanase (setting [4]) is 74%. The “enzyme activity in presence of additive” value in the series on novel xylanase (concentration of 100 HM) is given as “hardly affected”.

`OCCS` [2-ME, 2-Mercaptoethanol]: the “Relative activity according … (%)” value with novel xylanase (setting [3]) is listed as 89%.

With `[Cl-].[Cs+]` [CsCl2], the “Relative activity according … (%)” value with novel xylanase (setting [3]) turned out to be 97%.

For `CC(=O)O` [Acetate], in the series on novel xylanase (setting [3]), the “Relative activity according … (%)” value came out at 101%.

As to `[Ca+2].[Cl-].[Cl-]` [CaCl2], the “Relative activity according … (%)” value with novel xylanase (setting [3]) amounted to 102%.

As for `O=S(=O)([O-])[O-].[Zn+2]` [ZnSO4], the “Relative activity according … (%)” value in the series on novel xylanase (setting [3]) is recorded as 72%. In the series on novel xylanase (setting [4]), the “xylanase activity inhibited by” value is on record as 28%. Besides, in the series on novel xylanase (concentration of 100 HM), the “enzyme activity in presence of additive” value is recorded as “hardly affected”.

Consider `Cl.N` [NH4Cl], for which the “Relative activity according … (%)” value with novel xylanase (setting [3]) came to 99%.

For the molecule `[Cl][Mn][Cl]` [MnCl2], in the series with novel xylanase (setting [3]), the “Relative activity according … (%)” value amounted to 98%.

`[Cl][Fe]([Cl])[Cl]` [FeCl3]: the “Relative activity according … (%)” value in the series on novel xylanase (setting [3]) came to 88%. Also, the “xylanase activity inhibited by” value in the series on novel xylanase (setting [4]) stood at 12%. Besides, the “enzyme activity in presence of additive” value with novel xylanase (concentration of 100 HM) is “hardly affected”.

As to `O=S(=O)(F)Cc1ccccc1` [PMSF, Penylmethylsulfonyl fluoride], the “Relative activity according … (%)” value in the series with novel xylanase (setting [3]) amounted to 95%.

For `[Cl-].[Li+]` [LiCl], the “Relative activity according … (%)” value in the series on novel xylanase (setting [3]) was 101%.

In the case of `O[C@H](CS)[C@H](O)CS` (racemic) [DTT, Dithiothreitol], in the series on novel xylanase (setting [3]), the “Relative activity according … (%)” value was found to be 95%.

Take `[Cl-].[Na+]` [NaCl]: the “Relative activity according … (%)” value in the series on novel xylanase is on record as 105%.

`[Cl-].[K+]` [KCl]: the “Relative activity according … (%)” value in the series with novel xylanase (setting [3]) was found to be 101%.

For the molecule `O=Cc1ccco1` [Furfural, furfural], the “Relative activity according … (%)” value in the series on novel xylanase (setting [3]) stood at 98%.

B1: novel xylanase: approximately 65 kD xylanase of Paenibacillus sp. HPL-3, amino acid sequence SEQ. ID. NO: 4, produced in E. coli transformant (protein)
chain: MDTLKLYVESSNPAQAYYLDEVEIRQVSETPTTPPTEPTSGIESRFEDGTAQGWVSRMGTETVQVSNADARTGSYSLLTTGRQQTYAGPKLDVTATVQKGSRYTVSAWVKLAPGEQQPAKVRLSVQRDHQGESTYETVVGNTAITTGGWTHLYGTYTLAHEADTVSMYLETPEGTASFYMDDFELSLVPPLAIEKDIPSLHGLYQGQFSIGTAIEAFQTEGAYGELVQKHFNSVVAGNAMKPISLQPSEGQFHWEEADRIVQFAQQHGIAIRFHTLVWHNQTGDWMFKDKNGQPMTPTAENKKLLLDRLETHIRAVAARYKNVITDWDVVNEVIDPDQPDGMRRSKWYQITGTDYIDKAFRVTREAAGPNARLYINDYNTHEPKKRDFLYNLVRDLLAKGVPIDGVGHQSHIRLEFPAIDEMEQSIEKFASLGLDNQITELDMGLYSNDTDHYETIPEAMLIRQAHRYRALFDMFSRQQEHISNVTIWGTDDGNTWLSMFPIARLDKPLLFDERLKAKYAYWALVDPSKVPPLPAGSNE
modifications: SLX-O9 protein sequence
notes: approximately 65 kD xylanase of Paenibacillus sp; ID; NO: 4, produced in E. coli transformant
Regarding B1, the enzyme activity in series [1] (50° C., pH 5.0) came out at 97.37 units; in series [1] (50° C., pH 6.0), 124.19 units; in series [1] (50° C., pH 7.0), 122.21 units; in series [1] (50° C., pH 8.0), 124.61 units; in series [1] (50° C., pH 9.0) it was 122.95 units; in series [1] (50° C., pH 10.0), 103.27 units. Moreover, the enzyme activity in series [1] (50° C., pH 11.0) was determined as 96.08 units; in series [1] (60° C., pH 5.0, units = μM of xylose produced by 1 mg of enzyme per 1 minute), 26.93 units; in series [1] (60° C., pH 6.0), 105.19 units; in series [1] (60° C., pH 7.0), 123.56 units; in series [1] (60° C., pH 8.0) it was 120.95 units; in series [1] (60° C., pH 9.0), 112.25 units. For the same molecule, the enzyme activity in series [1] (60° C., pH 10.0) came out at 29.89 units; in series [1] (60° C., pH 11.0) it was 22.76 units. Also, in series [1] (after glutathione resin column purification), the “activity of purified enzyme compared with before purification” value is recorded as “at least 5 times”. Further, the “xylanase activity when conjugated onto the resin” value in series [1] (glutathione resin) is “not changed”. The “xylanase activity against other xylans (beech, oats, etc) compared with birch xylan” value in series [2] is reported as “similar”.
